Measurements as given in US7083959B2, “Therapeutic suppression of specific immune responses by administration of oligomeric forms of antigen of controlled chemistry” (The Johns Hopkins University, priority 1983, dated 2006).
Where no end group is shown, it is not given here.

Experiments:
CAF1/J mice = experiment: Immunogenicity of monomeric and polymerized BSA or OVA without adjuvant, serum ELISA; format: in vivo; conditions: for IgM and IgG anti-protein responses: administered without adjuvant; for serum anti-BSA IgM response: day 6, injected in saline without adjuvant, FIG. 40
Protocol: The molecular weight for each fraction was then determined by the use of the Model E analytical ultracentrifuge under equilibrium conditions. During this prolonged series of slow fractionation steps, molecules which were unstable to any of the many steps involved in processing, handling, or storage were fractionated away from the samples, yielding a series of preparations, each of which contained a relatively narrow range of molecular sizes of substantial time stability. These water soluble preparations were then injected into mice intra-peritoneally, without the use of any adjuvant, in order to determine their relative immunogenicity. The level of immune response was determined by measuring serum IgM or IgG antibody levels against BSA or OVA by standard solid state ELISA technique.

anti-104 antibodies = experiment: Share of anti-104 antibodies directed against 159, direct binding ELISA and competition assay; set-up: species or system mice
Text: However this peptide can be recognized by B cells since BSA conjugates raise good antibody responses to 159. Furthermore, as mentioned above, a substantial portion of antibodies raised by the 104-conjugates are directed against 159 as indicated both by direct binding in ELISA assay and by competition assay using free 159 to inhibit binding of anti-104 antibodies to 104-gelatin.

[1] = system: Sera obtained from (NZBxNZW) F1 mice; experiment: Epitope mapping: binding of lupus mouse sera to histone H2B peptides
Text: This identification process, referred to herein as “epitope mapping”, involves the synthesis of various overlapping peptide fragments which are subsequently analyzed to establish regions of antigenicity. Clearly, the study of the entire H2B structure (125 amino acids) would require a very large amount of peptide synthesis. However, it is known from studies of SLE patients and mice with lupus-like disease that removal of the H2B N-terminal region with trypsin results in a loss of antigenicity (Portanova, J. P., et. al., J. Immunol. 38, 446–457, (1987)). Attention was, therefore, focussed on the synthesis of peptides derived from this region of histone H2B.

## Polymeric BSA: BSA polymerized to itself through a water soluble carbodiimide, size fractionated
CAF1/J mice
  IgM and IgG anti-protein responses: considerable

## monomeric BSA: monomeric (68 kD) bovine serum albumin [reference compound]
CAF1/J mice
  serum anti-BSA IgM response: requires substantially higher doses
CAF1/J mice; repeated injections in saline at doses up to 100 μg, FIG. 43
  anti-BSA IgG response: not very effective

## N-Ac-Cys-(ε-ACA)-Glu-Ala-His^331-Ala-Glu-Ile-Asn-Glu-Ala-Gly-Arg^339-CONH2 ({Ac-Cys-ε‑ACA}-EAHAEINEAGR-NH2; listed as Mus musculus) [compound 159, represents residues 331–339 of chicken ovalbumin (OVA)]
anti-104 antibodies; 104 arrayed on dextran or BSA
  share of antibody response to 104 attributed to 159: 40–50%
anti-104 antibodies; solution phase competition assays (data not shown)
  share of 104 response competed with soluble 159: up to 40%

## N-Acetyl-Ala-Pro-Lys-Lys-Gly-Ser-Lys-Lys-Ala-Val-Thr-Lys-Ala-Gln-Lys-Cys-CONH2 (Ac-APKKGSKKAVTKAQKC-NH2) [Lupus 4′]
[1]
  binding of sera to peptide: not

## BSA 70-mer: soluble highly polymerized BSA containing 70 BSA monomers, carbodiimide cross-linked (5000 kD)
CAF1/J mice
  serum anti-BSA IgM response: capable of raising IgM antibodies even at very low doses

## N-Acetyl-Cys-Ala-Pro-Lys-Lys-Gly-Ser-Lys-Lys-Ala-Val-Thr-Lys-Ala-Gln-Lys-CONH2 (Ac-CAPKKGSKKAVTKAQK-NH2) [Lupus 3′]
[1]
  binding of sera to peptide: not

## Pro-Glu-Pro-Ala-Lys-Ser-Ala-Pro-Ala-Pro-Lys-Lys-Gly-Ser-Lys-Cys-CONH2 (PEPAKSAPAPKKGSKC-NH2) [Lupus 2′]
[1]
  binding of sera to peptide: bind strongly

## N-Acetyl-Cys-Lys-Ala-Val-Thr-Lys-Ala-Gln-Lys-Lys-Asp-Gly-Lys-Lys-Arg-Lys-CONH2 (Ac-CKAVTKAQKKDGKKRK-NH2) [Lupus 5′]
[1]
  binding of sera to peptide: not

B1: Polymeric OVA: OVA polymerized to itself by glutaraldehyde, size fractionated (protein, UniProt P01012 2-386, looked up)
Ovalbumin: GSIGAASMEFCFDVFKELKVHHANENIFYCPIAIMSALAMVYLGAKDSTRTQINKVVRFDKLPGFGDSIEAQCGTSVNVHSSLRDILNQITKPNDVYSFSLASRLYAEERYPILPEYLQCVKELYRGGLEPINFQTAADQARELINSWVESQTNGIIRNVLQPSSVDSQTAMVLVNAIVFKGLWEKAFKDEDTQAMPFRVTEQESKPVQMMYQIGLFRVASMASEKMKILELPFASGTMSMLVLLPDEVSGLEQLESIINFEKLTEWTSSNVMEERKIKVYLPRMKMEEKYNLTSVLMAMGITDVFSSSANLSGISSAESLKISQAVHAAHAEINEAGREVVGSAEAGVDAASVSEEFRADHPFLFCIKHIATNAVLFFGRCVSP
modifications: glutaraldehyde self-polymerized
notes: OVA polymerized to itself by glutaraldehyde, size fractionated
CAF1/J mice
  IgM and IgG anti-protein responses: considerable
